Results from patent publication US20100120050A1, “Biomarkers For Assessing Altherosclerotic Potential” (ENTELOS, INC., priority 2008, published 2010).
Read-outs that look alike come from different tables or passages of the source.

Tests used:
[1] = test system: hepatic genes (liver)
Procedure: While the molecular target for PPARγ is not in the liver, it represents the effects of changes in metabolism of the whole animal, which impact liver lipoprotein production and clearance.
Male Sprague-Dawley (Crl:CD® (SD)(IGS)BR) rats (Charles River Laboratories, Portage, Mich.), weight matched, 7 to 8 weeks of age, were housed individually in hanging, stainless steel, wire-bottom cages in a temperature (66-77° F.), light (12-hour dark/light cycle) and humidity (30-70%) controlled room. Water and rodent diet were available ad libitum throughout the 5 day acclimatization period and during the 5 day treatment period. Housing and treatment of the animals were in accordance with regulations outlined in the USDA Animal Welfare Act (9 CFR Parts 1, 2 and 3).
Rats (three per group) were dosed daily at either a low or high dose. […] Animals were necropsied on days 0.25, 1, 3, and 5. Up to 13 tissues (e.g., liver, kidney, heart, bone marrow, blood, spleen, brain, intestine, glandular and nonglandular stomach, lung, muscle, and gonads) were collected for histopathological evaluation and microarray expression profiling on the Affymetrix Rat Whole Genome RG230 v2 platform. In addition, a clinical pathology panel consisting of 37 clinical chemistry and hematology parameters was generated from blood samples collected on days 3 and 5.
Gene expression profiling, data processing and quality control were performed using protocols recommended by. Briefly, liver samples from 3 rats were chosen at random from each treatment and control group for each timepoint for expression profile analysis on the Affymetrix Rat Whole Genome RG230 v2 microarray (Affymetrix, Santa Clara, Calif.). Log transformed signal data for all probes were array-wise normalized using the Affymetrix MASS algorithm. Expression log ratios of base 10 (log(10) ratios) were computed as the difference between the logs of the averaged normalized experimental signals and the averaged normalized time-matched vehicle control signals for each gene.

[2] = clinical trials and post-marketing; cited from earlier work

CN(CCOc1ccc(CC2SC(=O)NC2=O)cc1)c1ccccn1 (stereo not shown) [rosiglitazone]
Average Log (10) Ratio: L-3-hydroxyacyl-Coenzyme A dehydrogenase, short chain ([1]; rat liver, probe AA891362, Rn.92789, oral gavage, experiments of Table 3): −0.205
Average Log (10) Ratio: acetyl-coenzyme A acetyltransferase 1 ([1]; rat liver, probe AA899304, Rn.4054, oral gavage, experiments of Table 3): 0.546
Average Log (10) Ratio: transferrin ([1]; rat liver, probe AA945548, Rn.91296, oral gavage, experiments of Table 3): −0.376
Average Log (10) Ratio: sterol regulatory element binding factor 1 ([1]; rat liver, probe AF286470, Rn.801, oral gavage, experiments of Table 3): −0.464
Average Log (10) Ratio: CCAAT/enhancer binding protein (C/EBP), delta ([1]; rat liver, probe AI176576, Rn.6975, oral gavage, experiments of Table 3): −0.407
Average Log (10) Ratio: fatty acid synthase ([1]; rat liver, probe AI179334, Rn.9486, oral gavage, experiments of Table 3): −0.182
Average Log (10) Ratio: peroxisome proliferator activated receptor alpha ([1]; rat liver, probe AI385341, Rn.9753, oral gavage, experiments of Table 3): 0.461
Average Log (10) Ratio: perilipin ([1]; rat liver, probe AI406700, Rn.9737, oral gavage, experiments of Table 3): 0.137
Average Log (10) Ratio: monoglyceride lipase ([1]; rat liver, probe AI713204, Rn.40396, oral gavage, experiments of Table 3): 0.439
Average Log (10) Ratio: phosphatidylinositol 3-kinase, C2 domain containing, gamma polypeptide ([1]; rat liver, probe AW526669, Rn.169550, oral gavage, experiments of Table 3): 0.692
Average Log (10) Ratio: monoglyceride lipase ([1]; rat liver, probe AY081195, Rn.40396, oral gavage, experiments of Table 3): 0.621
Average Log (10) Ratio: mitogen-activated protein kinase 8 ([1]; rat liver, probe BE105603, Rn.4090, oral gavage, experiments of Table 3): −0.104
Average Log (10) Ratio: ELOVL family member 6, elongation of long chain fatty acids (yeast) ([1]; rat liver, probe BF396857, Rn.46942, oral gavage, experiments of Table 3): 0.495
Average Log (10) Ratio: sterol regulatory element binding factor 1 ([1]; rat liver, probe BF398848, Rn.801, oral gavage, experiments of Table 3): −0.461
Average Log (10) Ratio: RIKEN cDNA 1500016L11 (DBSS) ([1]; rat liver, probe BF407188, Rn.15135, oral gavage, experiments of Table 3): −0.448
Average Log (10) Ratio: monoglyceride lipase ([1]; rat liver, probe BG372713, Rn.40396, oral gavage, experiments of Table 3): 0.551
Average Log (10) Ratio: Pyruvate carboxylase ([1]; rat liver, probe BG376902, Rn.11094, oral gavage, experiments of Table 3): −0.172
Average Log (10) Ratio: acetyl CoA transferase-like (DBSS) ([1]; rat liver, probe BG377636, Rn.98393, oral gavage, experiments of Table 3): 0.519
Average Log (10) Ratio: phospholipid transfer protein (DBSS) ([1]; rat liver, probe BI278687, Rn.117434, oral gavage, experiments of Table 3): −0.378
Average Log (10) Ratio: guanine nucleotide binding protein, alpha stimulating, olfactory type ([1]; rat liver, probe BI281656, Rn.39132, oral gavage, experiments of Table 3): 0.107
Average Log (10) Ratio: acetyl-Coenzyme A acyltransferase 2 (mitochondrial 3-oxoacyl-Coenzyme A thiolase) ([1]; rat liver, probe BI282488, Rn.3786, oral gavage, experiments of Table 3): 0.679
Average Log (10) Ratio: glycerol-3-phosphate acyltransferase, mitochondrial ([1]; rat liver, probe BI288209, Rn.44456, oral gavage, experiments of Table 3): −0.183
Average Log (10) Ratio: elongation of very long chain fatty acids (FEN1/Elo2, SUR4/Elo3, yeast)-like 3 (DBSS) ([1]; rat liver, probe BI292438, Rn.79322, oral gavage, experiments of Table 3): −0.042
Average Log (10) Ratio: NCI_CGAP_Emb2 cDNA clone IMAGE: 4176354 ([1]; rat liver, probe BI850137, Rn.83595, oral gavage, experiments of Table 3): −0.414
Average Log (10) Ratio: pyruvate dehydrogenase kinase, isoenzyme 3 (mapped) ([1]; rat liver, probe BM389330, Rn.18101, oral gavage, experiments of Table 3): −0.646
Average Log (10) Ratio: 3-hydroxy-3-methylglutaryl-Coenzyme A reductase ([1]; rat liver, probe BM390399, Rn.9437, oral gavage, experiments of Table 3): 0.392
Average Log (10) Ratio: sulfotransferase family 2A, dehydroepiandrosterone (DHEA)-preferring, member 1 ([1]; rat liver, probe D14989, Rn.91378, oral gavage, experiments of Table 3): 0.570
Average Log (10) Ratio: apolipoprotein E ([1]; rat liver, probe J02582, Rn.32351, oral gavage, experiments of Table 3): −0.324
Average Log (10) Ratio: stearoyl-Coenzyme A desaturase 1 ([1]; rat liver, probe J02585, Rn.1023, oral gavage, experiments of Table 3): −0.668
Average Log (10) Ratio: apolipoprotein B ([1]; rat liver, probe M14952, Rn.33815, oral gavage, experiments of Table 3): −0.255
Average Log (10) Ratio: NCI_CGAP_Emb2 cDNA clone IMAGE: 4176354 ([1]; rat liver, probe M15114, Rn.83595, oral gavage, experiments of Table 3): 0.409
Average Log (10) Ratio: malic enzyme 1 ([1]; rat liver, probe M30596, Rn.161920, oral gavage, experiments of Table 3): 0.554
Average Log (10) Ratio: glucokinase ([1]; rat liver, probe NM_012565, Rn.10447, oral gavage, experiments of Table 3): −1.066
Average Log (10) Ratio: serine (or cysteine) peptidase inhibitor, clade E, member 1 ([1]; rat liver, probe NM_012620, Rn.29367, oral gavage, experiments of Table 3): 0.819
Average Log (10) Ratio: adrenergic receptor, beta 1 ([1]; rat liver, probe NM_012701, Rn.87064, oral gavage, experiments of Table 3): −0.177
Average Log (10) Ratio: hexokinase 2 ([1]; rat liver, probe NM_012735, Rn.91375, oral gavage, experiments of Table 3): −0.330
Average Log (10) Ratio: guanylate cyclase 1, soluble, beta 3 ([1]; rat liver, probe NM_012769, Rn.87228, oral gavage, experiments of Table 3): −0.348
Average Log (10) Ratio: guanylate cyclase 1, soluble, beta 2 ([1]; rat liver, probe NM_012770, Rn.10933, oral gavage, experiments of Table 3): −0.465
Average Log (10) Ratio: mitogen activated protein kinase 10 ([1]; rat liver, probe NM_012806, Rn.9911, oral gavage, experiments of Table 3): 0.458
Average Log (10) Ratio: carnitine palmitoyltransferase 2 ([1]; rat liver, probe NM_012930, Rn.11389, oral gavage, experiments of Table 3): 0.494
Average Log (10) Ratio: 3-hydroxy-3-methylglutaryl-Coenzyme A reductase ([1]; rat liver, probe NM_013134, Rn.9437, oral gavage, experiments of Table 3): 0.389
Average Log (10) Ratio: transforming growth factor, beta 3 ([1]; rat liver, probe NM_013174, Rn.7018, oral gavage, experiments of Table 3): −0.380
Average Log (10) Ratio: carnitine palmitoyltransferase 1b, muscle ([1]; rat liver, probe NM_013200, Rn.6028, oral gavage, experiments of Table 3): 0.984
Average Log (10) Ratio: solute carrier family 10, member 2 ([1]; rat liver, probe NM_017222, Rn.85891, oral gavage, experiments of Table 3): −0.544
Average Log (10) Ratio: mitogen-activated protein kinase 9 ([1]; rat liver, probe NM_017322, Rn.9910, oral gavage, experiments of Table 3): −0.348
Average Log (10) Ratio: acyl-Coenzyme A oxidase 1, palmitoyl ([1]; rat liver, probe NM_017340, Rn.31796, oral gavage, experiments of Table 3): 0.336
Average Log (10) Ratio: transforming growth factor, beta 1 ([1]; rat liver, probe NM_021578, Rn.40136, oral gavage, experiments of Table 3): −0.592
Average Log (10) Ratio: protein kinase, AMP-activated, beta 2 non-catalytic subunit ([1]; rat liver, probe NM_022627, Rn.15423, oral gavage, experiments of Table 3): −0.211
Average Log (10) Ratio: transforming growth factor, beta 2 ([1]; rat liver, probe NM_031131, Rn.24539, oral gavage, experiments of Table 3): 0.020
Average Log (10) Ratio: carnitine palmitoyltransferase 1a, liver ([1]; rat liver, probe NM_031559, Rn.2856, oral gavage, experiments of Table 3): 0.264
Average Log (10) Ratio: protein kinase, AMP-activated, beta 1 non-catalytic subunit ([1]; rat liver, probe NM_031976, Rn.3619, oral gavage, experiments of Table 3): −0.409
Average Log (10) Ratio: ATP-binding cassette, sub-family D (ALD), member 1 (DBSS) ([1]; rat liver, probe NM_033352, Rn.177278, oral gavage, experiments of Table 3): 0.450
Average Log (10) Ratio: insulin-like growth factor binding protein, acid labile subunit ([1]; rat liver, probe NM_053329, Rn.164865, oral gavage, experiments of Table 3): −0.658
Average Log (10) Ratio: pyruvate dehydrogenase kinase, isoenzyme 4 ([1]; rat liver, probe NM_053551, Rn.30070, oral gavage, experiments of Table 3): 0.442
Average Log (10) Ratio: phosphatidylinositol 3-kinase, C2 domain containing, gamma polypeptide ([1]; rat liver, probe NM_053923, Rn.169550, oral gavage, experiments of Table 3): −0.485
Average Log (10) Ratio: pyruvate dehydrogenase E1 alpha 2 ([1]; rat liver, probe NM_053994, Rn.11126, oral gavage, experiments of Table 3): −0.338
Average Log (10) Ratio: nuclear receptor subfamily 0, group B, member 2 ([1]; rat liver, probe NM_057133, Rn.10712, oral gavage, experiments of Table 3): 0.367
Average Log (10) Ratio: hydroxyacyl-Coenzyme A dehydrogenase/3-ketoacyl-Coenzyme A thiolase/enoyl-Coenzyme A hydratase (trifunctional protein), beta subunit ([1]; rat liver, probe NM_133618, Rn.11253, oral gavage, experiments of Table 3): 0.409
Average Log (10) Ratio: ELOVL family member 5, elongation of long chain fatty acids (yeast) ([1]; rat liver, probe NM_134382, Rn.4243, oral gavage, experiments of Table 3): −0.486
Average Log (10) Ratio: Glycerol-3-phosphate dehydrate dehydrogenase (mtGPDH) mRNA, 3′UTR ([1]; rat liver, probe U08027, Rn.89705, oral gavage, experiments of Table 3): 0.635
Average Log (10) Ratio: glycerol-3-phosphate acyltransferase, mitochondrial ([1]; rat liver, probe U36771, Rn.44456, oral gavage, experiments of Table 3): −0.156
Average Log (10) Ratio: Cytochrome P450, family 2, subfamily b, polypeptide 2 ([1]; rat, in vivo, po): 0.629
Average Log (10) Ratio: cytochrome P450, family 2, subfamily b, polypeptide 13 ([1]; rat, in vivo, po): 0.499
Average Log (10) Ratio: cytochrome P450, family 3, subfamily a, polypeptide 13 ([1]; rat, in vivo, po): 0.550
Average Log (10) Ratio: cytochrome P450, family 7, subfamily a, polypeptide 1 ([1]; rat, in vivo, po): −0.168
Average Log (10) Ratio: cytochrome P450, family 8, subfamily b, polypeptide 1 ([1]; rat, in vivo, po): 0.394
risk of cardiovascular events [2]: paradoxically increased risk of cardiovascular events
